Laboratory results published in patent US8759510B2, “Nucleoside cyclicphosphates” (Gilead Pharmasset LLC, priority 2008, dated 2014).

Tested on: HCV replicon RNA-containing Huh7 cells (clone A cells)
Assay: HCV replicon assay
Format: cell-based
Details: Hepatitis C virus, Huh-7, 96 h, read-out: CloneA EC90, Huh7 clone A replicon cells; incubation 4 days; replicon RNA by RT-PCR; ΔCt of 3.3 = 1-log 10 reduction (EC90)
Experimental: HCV replicon assay. HCV replicon RNA-containing Huh7 cells (clone A cells; Apath, LLC, St. Louis, Mo.) were kept at exponential growth in Dulbecco's modified Eagle's medium (high glucose) containing 10% fetal bovine serum, 4 mM L-glutamine and 1 mM sodium pyruvate, 1× nonessential amino acids, and G418 (1,000 μg/ml). Antiviral assays were performed in the same medium without G418. Cells were seeded in a 96-well plate at 1,500 cells per well, and test compounds were added immediately after seeding. Incubation time 4 days. At the end of the incubation step, total cellular RNA was isolated (RNeasy 96 kit; Qiagen). Replicon RNA and an internal control (TaqMan rRNA control reagents; Applied Biosystems) were amplified in a single-step multiplex RT-PCR protocol as recommended by the manufacturer. The HCV primers and probe were designed with Primer Express software (Applied Biosystems) and covered highly conserved 5′-untranslated region (UTR) sequences (sense primer: 5′-AGCCATGGCGTTAGTA(T)GAGTGT-3′ (SEQ ID NO: 1); antisense primer: 5′-TTCCGCAGACCACTATGG-3′ (SEQ ID NO:2); and probe; 5′-FAM-[…]-TAMRA-3′ (SEQ ID NO:3)).
To express the antiviral effectiveness of a compound, the threshold RT-PCR cycle of the test compound was subtracted from the average threshold RT-PCR cycle of the no-drug control (ΔCtHCV). A ΔCt of 3.3 equals a 1-log 10 reduction (equal to the 90% effective concentration [EC90]) in replicon RNA levels. The cytotoxicity of the test compound could also be expressed by calculating the ΔCtrRNA values. The ΔΔCt specificity parameter could then be introduced (ΔCtHCV-ΔCtrRNA), in which the levels of HCV RNA are normalized for the rRNA levels and calibrated against the no-drug control.

Compared with `COP1(=O)OC[C@H]2O[C@@H](n3cnc4c(O)nc(N)nc43)[C@](C)(F)[C@@H]2O1` (stereo partly drawn) [Compound 4, 2-Amino-9-((4aR,6R,7R,7aR)-7-fluoro-2-methoxy-7-methyl-2-oxo-tetrahydro-2λ^5-furo[3,2-d][1,3,2]dioxaphosphinin-6-yl)-9H-purin-6-ol], `COP1(=O)OC[C@H]2O[C@@H](n3cnc4c(NC5CCC5)nc(N)nc43)[C@](C)(F)[C@@H]2O1` (stereo partly drawn) [Compound 6, N^6-Cyclobutyl-9((4aR,6R,7R,7aR)-7-fluoro-2-methoxy-7-methyl-2-oxo-tetrahydro-2λ^5-furo[3,2-d][1,3,2]dioxaphosphinin-6-yl)-9H-purine-2,6-diamine] is 7.5-fold lower in EC90: 11.7 µM for the first, 1.55 µM for the second.

Compound `CO[P@]1(=O)OC[C@H]2O[C@@H](n3ccc(N)nc3=O)[C@](C)(F)[C@@H]2O1` [Compound 5, 4-Amino-1-((2R,4aR,6R,7R,7aR)-7-fluoro-2-methoxy-7-methyl-2-oxo-tetrahydro-2λ^5-furo[3,2-d][1,3,2]dioxaphosphinin-6-yl)-1H-pyrimidin-2-one] has an EC90 of 8.06 µM.

Same assay, conditions: Hepatitis C virus, Huh-7, 96 h; Huh7 clone A replicon cells; incubation 4 days; replicon RNA by RT-PCR; ΔCt of 3.3 = 1-log 10 reduction (EC90); read-out: CloneA EC90

First: C[C@@]1(F)[C@@H]2O[P@@](=O)(OCc3ccccc3)OC[C@H]2O[C@H]1n1ccc(=O)[nH]c1=O (single isomer, unassigned) [Compound 2a]
Second: COc1nc(N)nc2c1ncn2[C@@H]1O[C@@H]2COP(=O)(OCc3ccccc3)O[C@H]2[C@@]1(C)F (stereo in doubt) [Example 44, 9-((2R,4aR,6R,7R,7aR)-2-Benzyloxy-7-fluoro-7-methyl-2-oxo-tetrahydro-2λ^5-furo[3,2-d][1,3,2]dioxaphosphinin-6-yl)-6-methoxy-9H-purin-2-ylamine]
The EC90 of the first is 480-fold higher: 25.2 µM for the first, 0.053 µM for the second.

First: C[C@@]1(F)[C@@H]2O[P@](=O)(OCC3CC3)OC[C@H]2O[C@H]1n1cnc2c(O)nc(N)nc21 (single isomer, unassigned) [Example 38b]
Second: COc1nc(N)nc2c1ncn2[C@@H]1O[C@@H]2COP(=O)(O)O[C@H]2[C@@]1(C)F [Example 41, (4aR,6R,7R,7aR)-6-(2-Amino-6-methoxy-purin-9-yl)-7-fluoro-7-methyl-2-oxo-tetrahydro-2λ^5-furo[3,2-d][1,3,2]dioxaphosphinin-2-ol]
The EC90 of the first is 270-fold higher: 26.6 µM for the first, 0.098 µM for the second.

First: COc1nc(N)nc2c1ncn2[C@@H]1O[C@@H]2COP(=O)(OC(C)C)O[C@H]2[C@@]1(C)F (single isomer, unassigned) [Example 43a]
Second: COc1nc(N)nc2c1ncn2[C@@H]1O[C@@H]2CO[P@](=O)(OC(C)C)O[C@H]2[C@@]1(C)F (single isomer, unassigned) [Example 43b]
The EC90 of the first is 4.8-fold higher: 0.29 µM for the first, 0.06 µM for the second.

Compared with `C[C@@]1(F)[C@@H]2O[P@@](=O)(OCc3ccccc3)OC[C@H]2O[C@H]1n1ccc(=O)[nH]c1=O` [Compound 2b, 1-((2S,4aR,6R,7R,7aR)-2-Benzyloxy-7-fluoro-7-methyl-2-oxo-tetrahydro-2λ^5-furo[3,2-d][1,3,2]dioxaphosphinin-6-yl)-1H-pyrimidine-2,4-dione], `CCOc1nc(N)nc2c1ncn2[C@@H]1O[C@@H]2CO[P@](=O)(OCc3ccccc3)O[C@H]2[C@@]1(C)F` [Example 48, 9-((4aR,6R,7R,7aR)-2-Benzyloxy-7-fluoro-7-methyl-2-oxo-tetrahydro-2λ5-furo[3,2-d][1,3,2]dioxaphosphinin-6-yl)-6-ethoxy-9H-purin-2-ylamine] is 55-fold lower in EC90: 17.7 µM for the first, 0.32 µM for the second.

Going from `C[C@@]1(F)[C@@H]2O[P@](=O)(OC3CCCC3)OC[C@H]2O[C@H]1n1cnc2c(N3CCC3)nc(N)nc21` [Example 32a, 6-Azetidin-1-yl-9-((4aR,6R,7R,7aR)-2-cyclopentyloxy-7-fluoro-7-methyl-2-oxo-tetrahydro-2λ^5-furo[3,2-d][1,3,2]dioxaphosphinin-6-yl)-9H-purin-2-ylamine] to `C[C@@]1(F)[C@@H]2O[P@@](=O)(OC3CCCC3)OC[C@H]2O[C@H]1n1cnc2c(N3CCC3)nc(N)nc21` [Example 32b, 6-Azetidin-1-yl-9-((4aR,6R,7R,7aR)-2-cyclopentyloxy-7-fluoro-7-methyl-2-oxo-tetrahydro-2λ^5-furo[3,2-d][1,3,2]dioxaphosphinin-6-yl)-9H-purin-2-ylamine], the EC90 falls from 8.54 µM to 4.7 µM (1.8-fold).

For `CCOc1nc(N)nc2c1ncn2[C@@H]1O[C@@H]2COP(=O)(O)O[C@H]2[C@@]1(C)F` [Example 45, (4aR,6R,7R,7aR)-6-(2-Amino-6-ethoxy-purin-9-yl)-7-fluoro-7-methyl-2-oxo-tetrahydro-2λ^5-furo[3,2-d][1,3,2]dioxaphosphinin-2-ol], the EC90 was 0.7 µM.

Same assay, conditions: Huh7 clone A replicon cells; incubation 4 days; replicon RNA by RT-PCR; ΔCt of 3.3 = 1-log 10 reduction (EC90); read-out: CloneA EC90

`CCOc1nc(N)nc2c1ncn2[C@@H]1O[C@@H]2COP(=O)(OC)O[C@H]2[C@@]1(C)F` (stereo partly drawn) [Compound 18, 6-Ethoxy-9-((4aR,6R,7R,7aR)-7-fluoro-2-methoxy-7-methyl-2-oxo-tetrahydro-2,5-furo[3,2-d][1,3,2]dioxaphosphinin-6-yl)-9H-purin-2-ylamine] and `CCOc1nc(N)nc2c1ncn2[C@@H]1O[C@@H]2COP(=O)(OC(C)C)O[C@H]2[C@@]1(C)F` (stereo partly drawn) [Compound 19, 6-Ethoxy-9-((4aR,6R,7R,7aR)-7-fluoro-2-isopropoxy-7-methyl-2-oxo-tetrahydro-2,5-furo[3,2-d][1,3,2]dioxaphosphinin-6-yl)-9H-purin-2-yl amine] are within 1.5-fold of each other in EC90: 0.48 µM for the first, 0.6 µM for the second.

Same assay, conditions: read-out: CloneA EC90; Huh7 clone A replicon cells; incubation 4 days; replicon RNA by RT-PCR; ΔCt of 3.3 = 1-log 10 reduction (EC90)

First: CO[P@@]1(=O)OC[C@H]2O[C@@H](n3ccc(=O)[nH]c3=O)[C@](C)(F)[C@@H]2O1 [Compound 1a, 1-((2S,4aR,6R,7R,7aR)-7-Fluoro-2-methoxy-7-methyl-2-oxo-tetrahydro-2λ^5-furo[3,2-d][1,3,2]dioxaphosphinin-6-yl)-1H-pyrimidine-2,4-dione]
Second: COP1(=O)OC[C@H]2O[C@@H](n3cnc4c(N5CCC5)nc(N)nc43)[C@](C)(F)[C@@H]2O1 (stereo partly drawn) [Compound 3, 6-Azetidin-1-yl-9-((4aR,6R,7R,7aR)-7-fluoro-2-methoxy-7-methyl-2-oxo-tetrahydro-2λ^5-furo[3,2-d][1,3,2]dioxaphosphinin-6-yl)-9H-purin-2-ylamine]
The EC90 of the first is 7.1-fold higher: 5.35 µM for the first, 0.75 µM for the second.

`CO[P@@]1(=O)OC[C@H]2O[C@@H](n3ccc(=O)[nH]c3=O)[C@](C)(F)[C@@H]2O1` [Compound 1b, 1-((2S,4aR,6R,7R,7aR)-7-Fluoro-2-methoxy-7-methyl-2-oxo-tetrahydro-2λ^5-furo[3,2-d][1,3,2]dioxaphosphinin-6-yl)-1H-pyrimidine-2,4-dione] was tested, and the EC90 was 17.4 µM.
